Data from patent US8268827B2, “Pyridazinone derivatives as PARP inhibitors” (Istituto di Ricerche di Biologia Molecolare P. Angeletti …, priority 2007, dated 2012).
Counter-ions that a name gives are not always drawn.

How the values were obtained:
[1] = tested on: BRCA-1 silenced HeLa cells (HeLa shBRCA1-GFP); assay: Proliferation assay in BRCA-1 silenced HeLa cells; format: cell-based; conditions: Homo sapiens; BRCA1 silenced HeLa cells, 168 hours; read-out: CC50 in the BRCA1 silenced HeLa cells
Method in brief: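 Antiproliferative effect was read by Celltiter Blue fluorescence after 168 h of compound treatment at 37° C., 5% CO2. Cells were matched HeLa pairs, BRCA1-shRNA (>80% silenced, GFP) versus non-shRNA vector control, in DMEM with 10% FCS.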

PARP-1 = biological target: T1, PARP-1 (Homo sapiens, UniProt P09874); assay: PARP-1 SPA assay; format: biochemical
T1 construct: purchased Trevigen 4668-500-01
T1 sequence (P09874 whole entry): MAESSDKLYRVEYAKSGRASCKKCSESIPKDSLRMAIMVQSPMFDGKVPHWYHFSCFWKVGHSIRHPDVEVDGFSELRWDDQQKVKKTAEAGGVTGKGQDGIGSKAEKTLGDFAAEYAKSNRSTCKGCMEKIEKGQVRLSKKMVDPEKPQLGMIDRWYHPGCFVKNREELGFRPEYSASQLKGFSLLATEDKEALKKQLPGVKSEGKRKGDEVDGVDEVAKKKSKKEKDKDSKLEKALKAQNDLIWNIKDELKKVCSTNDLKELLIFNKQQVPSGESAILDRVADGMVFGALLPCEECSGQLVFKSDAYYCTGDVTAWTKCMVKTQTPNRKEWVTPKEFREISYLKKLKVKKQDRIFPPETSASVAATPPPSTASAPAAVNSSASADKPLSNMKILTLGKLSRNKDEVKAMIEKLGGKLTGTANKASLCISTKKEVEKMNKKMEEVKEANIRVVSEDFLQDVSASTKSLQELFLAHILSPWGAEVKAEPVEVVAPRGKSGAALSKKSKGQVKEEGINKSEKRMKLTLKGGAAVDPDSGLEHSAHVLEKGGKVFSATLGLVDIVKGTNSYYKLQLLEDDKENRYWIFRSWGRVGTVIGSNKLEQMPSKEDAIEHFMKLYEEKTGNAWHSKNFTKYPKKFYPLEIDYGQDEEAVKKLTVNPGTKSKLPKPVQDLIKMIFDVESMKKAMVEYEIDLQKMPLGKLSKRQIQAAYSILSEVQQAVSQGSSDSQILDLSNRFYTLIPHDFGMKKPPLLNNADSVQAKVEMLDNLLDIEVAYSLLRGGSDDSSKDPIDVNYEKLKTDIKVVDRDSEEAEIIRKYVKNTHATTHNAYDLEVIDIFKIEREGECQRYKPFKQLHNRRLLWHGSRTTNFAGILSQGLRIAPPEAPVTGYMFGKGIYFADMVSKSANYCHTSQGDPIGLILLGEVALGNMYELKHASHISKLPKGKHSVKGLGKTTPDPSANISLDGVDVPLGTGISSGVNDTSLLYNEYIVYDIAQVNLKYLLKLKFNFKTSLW
Method: Assay buffer: 100 mM Tris pH 8, 4 mM MgCl2, 4 mM Spermine, 200 mM KCl, 0.04% Nonidet P-40.
Nicotinamide-adenine dinucleotide (NAD)/DNA Mix: [^3H-NAD] (250 uCi/ml, 0.4 ul, Perkin-Elmer NET-443H), NAD (1.5 mM, 0.05 ul, SIGMA N-1511), Biotinylated-NAD (250 uM, 0.03 ul, Trevigen 4670-500-01), Activated calf thymus (1 mg/ml, 0.05 ul, Amersham Biosciences 27-4575), H2O (to 10 ul).
Developing Mix: Streptavidin SPA beads (5 mg/ml, Amersham Biosciences RPNQ 0007) dissolved in 500 mM EDTA.
The reaction is performed in 96-well microplate with a final volume of 50 uL/well. Add 5 ul 5% DMSO/compound solution, add enzyme mix (35 ul), start the reaction by adding NAD/DNA mix (10 uL) and incubate for 2 hrs at RT. Stop the reaction by adding developing mix (25 ul) and incubate 15 min at RT. Measure using a Packard TOP COUNT instrument.

| SMILES | IC50 (PARP-1) [nM] | CC50 [1] [nM] |
| --- | --- | --- |
| C[C@@H]1CCC[C@H]2CN(C(=O)c3cc(Cc4cc(C(F)(F)F)c(=O)[nH]n4)ccc3F)CC(=O)N21 (racemic) [Example 87, 6-{4-Fluoro-3-[(cis-6-methyl-4-oxooctahydro-2H-pyrido[1,2-a]pyrazin-2-yl)carbonyl]benzyl}-3-oxo-4-(trifluoromethyl)-2,3-dihydropyridazin-1-ium trifluoroacetate] | 5 to 25 | < 50 |
| O=C(c1cc(Cc2cc(C(F)(F)F)c(=O)[nH]n2)ccc1F)N1CC(=O)N2CCCCC2C1 (racemic) [Example 91, 2-(2-Fluoro-5-{[6-oxo-5-(trifluoromethyl)-1,6-dihydropyridazin-3-yl]methyl}benzoyl)octahydro-4H-pyrido[1,2-a]pyrazin-4-one] | 5 to 25 | 50 to 500 |
| Cc1c(Cc2ccc(F)c(C(=O)N3CCN([C@H]4CC[C@@H](F)C4)C(=O)C3)c2)n[nH]c(=O)c1C (relative stereo) [Example 80, cis-3-{4-Fluoro-3-[4-(3-fluoro-cyclopentyl)-3-oxo-piperazine-1-carbonyl]-benzyl}-4,5-dimethyl-6-oxo-1,6-dihydro-pyridazin-1-ium trifluoroacetate] | < 5 | 50 to 500 |
| O=C(c1cc(Cc2cc(C(F)(F)F)c(=O)[nH]n2)ccc1F)N1CC(=O)N2CCCC[C@H]2C1 (single isomer, unassigned) [92 (ZZ1)] | < 5 | < 5000 |
| O=C(c1cc(Cc2cc(C(F)(F)F)c(=O)[nH]n2)ccc1F)N1CC(=O)N2CCCC[C@@H]2C1 (single isomer, unassigned) [92 (ZZ2)] | 5 to 25 | 50 to 500 |
| O=C(c1cc(Cc2cc(C(F)(F)F)c(=O)[nH]n2)ccc1F)N1CCN(C2CCCC2)C(=O)C1 [Example 33, 6-{3-[(4-Cyclopentyl-3-oxopiperazin-1-yl)carbonyl]-4-fluorobenzyl}-3-oxo-4-(trifluoromethyl)-2,3-dihydropyridazin-1-ium trifluoroacetate] | < 5 | 50 to 500 |
| Cc1c(Cc2ccc(F)c(C(=O)N3CCN(C4CCCCC4)C(=O)C3C)c2)n[nH]c(=O)c1C (centres unmarked) [Example 35, 6-{3-[(4-Cyclohexyl-2-methyl-3-oxopiperazin-1-yl)carbonyl]-4-fluorobenzyl}-4,5-dimethyl-3-oxo-2,3-dihydropyridazin-1-ium trifluoroacetate] | 5 to 25 | < 5000 |
| CCc1c(Cc2ccc(F)c(C(=O)N3CCN(C4CCCCC4)C(=O)C3)c2)n[nH]c(=O)c1C(F)(F)F [Example 39, 6-{3-[(4-Cyclohexyl-3-oxopiperazin-1-yl)carbonyl]-4-fluorobenzyl}-5-ethyl-4-(trifluoromethyl)pyridazin-3(2H)-one trifluoroacetate] | < 5 | < 50 |
| Cc1c(Cc2ccc(F)c(C(=O)N3CCN(C4CCC(F)(F)CC4)C(=O)C3)c2)n[nH]c(=O)c1C [Example 48, 6-(3-{[4-(4,4-Difluorocyclohexyl)-3-oxopiperazin-1-yl]carbonyl}-4-fluorobenzyl)-4,5-dimethyl-3-oxo-2,3-dihydropyridazin-1-ium trifluoroacetate] | 5 to 25 | 50 to 500 |
| Cc1c(Cc2ccc(F)c(C(=O)N3CCN(C4CCC(F)(F)C4)C(=O)C3)c2)n[nH]c(=O)c1C (centres unmarked) [Example 49, 6-(3-{[4-(3,3-Difluorocyclopentyl)-3-oxopiperazin-1-yl]carbonyl}-4-fluorobenzyl)-4,5-dimethyl-3-oxo-2,3-dihydropyridazin-1-ium trifluoroacetate] | < 5 | < 50 |
| Cc1c(Cc2ccc(F)c(C(=O)N3CCN(C4CCC(C)(C)CC4)C(=O)C3)c2)n[nH]c(=O)c1C [Example 50, 6-(3-{[4-(4,4-Dimethylcyclohexyl)-3-oxopiperazin-1-yl]carbonyl}-4-fluorobenzyl)-4,5-dimethyl-3-oxo-2,3-dihydropyridazin-1-ium trifluoroacetate] | 5 to 25 | < 50 |
| Cc1c(Cc2ccc(F)c(C(=O)N3CCN(C4CCCC(C)(C)C4)C(=O)C3)c2)n[nH]c(=O)c1C (centres unmarked) [Example 51, 6-(3-{[4-(3,3-Dimethylcyclohexyl)-3-oxopiperazin-1-yl]carbonyl}-4-fluorobenzyl)-4,5-dimethyl-3-oxo-2,3-dihydropyridazin-1-ium trifluoroacetate] | 5 to 25 | 50 to 500 |
| Cc1c(Cc2ccc(F)c(C(=O)N3CCN(C(C)c4nc(C(C)C)no4)C(=O)C3)c2)n[nH]c(=O)c1C (centres unmarked) [Example 54, 6-[4-Fluoro-3-({4-[1-(3-isopropyl-1,2,4-oxadiazol-5-yl)ethyl]-3-oxopiperazin-1-yl}carbonyl)benzyl]-4,5-dimethyl-3-oxo-2,3-dihydropyridazin-1-ium trifluoroacetate] | < 5 | 50 to 500 |

Continued, in another order:

| IC50 (PARP-1) [nM] | SMILES | CC50 [1] [nM] |
| --- | --- | --- |
| < 5 | Cc1c(Cc2ccc(F)c(C(=O)N3CC(=O)N(c4ccccc4)C(C)C3)c2)n[nH]c(=O)c1C (racemic) [Example 78 (LL4), 3-[4-Fluoro-3-(3-methyl-5-oxo-4-phenyl-piperazine-1-carbonyl)-benzyl]-4,5-dimethyl-6-oxo-1,6-dihydro-pyridazin-1-ium trifluoroacetate] | < 50 |
| < 5 | Cc1c(Cc2ccc(F)c(C(=O)N3CC(=O)N(c4ccc(F)cc4)C(C)C3)c2)n[nH]c(=O)c1C (racemic) [Example 79, 3-{4-Fluoro-3-[4-(4-fluoro-phenyl)-3-methyl-5-oxo-piperazine-1-carbonyl]-benzyl}-4,5-dimethyl-6-oxo-1,6-dihydro-pyridazin-1-ium trifluoroacetate] | < 50 |
| 5 to 25 | Cc1c(Cc2ccc(F)c(C(=O)N3CC(=O)N(c4ccccc4)[C@@H](C)C3)c2)n[nH]c(=O)c1C (single isomer, unassigned) [78 (LL4A)] | 50 to 500 |
| < 5 | Cc1c(Cc2ccc(F)c(C(=O)N3CC(=O)N(c4ccccc4)[C@H](C)C3)c2)n[nH]c(=O)c1C (single isomer, unassigned) [Example 78 (LL4B)] | < 50 |
| 5 to 25 | Cc1c(Cc2ccc(F)c(C(=O)N3CCN(c4ccccn4)C(=O)C3)c2)n[nH]c(=O)c1C [Example 31, 3-{4-Fluoro-3-[(3-oxo-4-pyridin-2-ylpiperazin-1-yl)carbonyl]benzyl}-4,5-dimethyl-6-oxo-1,6-dihydropyridazin-1-ium trifluoroacetate] | < 5000 |
| 5 to 25 | Cc1c(Cc2ccc(F)c(C(=O)N3CC(=O)N4CCCCC4C3)c2)n[nH]c(=O)c1C (centres unmarked) [Example 32, 6-{4-Fluoro-3-[(4-oxooctahydro-2H-pyrido[1,2-a]pyrazin-2-yl)carbonyl]benzyl}-4,5-dimethyl-3-oxo-2,3-dihydropyridazin-1-ium trifluoroacetate] | < 50 |
| 5 to 25 | Cc1c(Cc2ccc(F)c(C(=O)N3CCC(=O)N(C(C)C)CC3)c2)n[nH]c(=O)c1C [Example 36, 6-{4-Fluoro-3-[(4-isopropyl-5-oxo-1,4-diazepan-1-yl)carbonyl]benzyl}-4,5-dimethyl-3-oxo-2,3-dihydropyridazin-1-ium trifluoroacetate] | < 5000 |
| < 5 | Cc1c(Cc2ccc(F)c(C(=O)N3CCN(c4cccnc4)C(=O)C3)c2)n[nH]c(=O)c1C [Example 38, 6-{4-Fluoro-3-[(3-oxo-4-pyridin-3-ylpiperazin-1-yl)carbonyl]benzyl}-4,5-dimethylpyridazin-3(2H)-one] | 50 to 500 |
| 5 to 25 | Cc1c(Cc2ccc(F)c(C(=O)N3CCN(c4ccc(F)cc4)C(=O)C3)c2)n[nH]c(=O)c1C [Example 40, 6-(4-Fluoro-3-{[4-(4-fluorophenyl)-3-oxopiperazin-1-yl]carbonyl}benzyl)-4,5-dimethyl-3-oxo-2,3-dihydropyridazin-1-ium trifluoroacetate] | 50 to 500 |
| 5 to 25 | Cc1c(Cc2ccc(F)c(C(=O)N3CCN(C45CC(C4)C5)C(=O)C3)c2)n[nH]c(=O)c1C [Example 52, 6-{3-[(4-Bicyclo[1.1.1]pent-1-yl-3-oxopiperazin-1-yl)carbonyl]-4-fluorobenzyl}-4,5-dimethyl-3-oxo-2,3-dihydropyridazin-1-ium trifluoroacetate] | 50 to 500 |
| 5 to 25 | Cc1c(Cc2ccc(F)c(C(=O)N3CCN(CC4CCCc5ccccc54)C(=O)C3)c2)n[nH]c(=O)c1C (centres unmarked) [Example 53, 6-(4-Fluoro-3-{[3-oxo-4-(1,2,3,4-tetrahydronaphthalen-1-ylmethyl)piperazin-1-yl]carbonyl}benzyl)-4,5-dimethyl-3-oxo-2,3-dihydropyridazin-1-ium trifluoroacetate] | 50 to 500 |
| 5 to 25 | Cc1c(Cc2ccc(F)c(C(=O)N3CCN(C4CC(F)(F)C4)C(=O)C3)c2)n[nH]c(=O)c1C [Example 55, 6-(3-{[4-(3,3-Difluorocyclobutyl)-3-oxopiperazin-1-yl]carbonyl}-4-fluorobenzyl)-4,5-dimethyl-3-oxo-2,3-dihydropyridazin-1-ium trifluoroacetate] | 50 to 500 |
